Data published in article PMC5835418 (Journal of pharmaceutical and biomedical analysis, 2018).
Structures can show the parent of a compound that is named as a salt.

Key:
[1] = ex vivo, data not shown
[2] = for number of freeze-thaw cycles for which stable: plasma, -80°C
[3] = Injection matrix stability; conditions: 72 h at 4°C, compared to the previously run curve; data not shown
[4] = Plasma concentrations in mice after rectal enema dosing of TAF or CMX157; assay type: in vivo
[5] = data not shown
[6] = cited from earlier work
[7] = human, 244 days
[8] = following a single 25 mg dose of TAF; ref 24 (Custodio and colleagues); cited from earlier work
[9] = human, 24 h
[10] = 72 h

CCCCCCCCCCCCCCCCOCCCOP(=O)(O)CO[C@H](C)Cn1cnc2c(N)ncnc21 [CMX157, hexadecyloxypropyl tenofovir]
time up to which stable in whole blood [1]: ≤ 8 h

CC(C)OC(=O)[C@H](C)N[P@](=O)(CO[C@H](C)Cn1cnc2c(N)ncnc21)Oc1ccccc1 [TAF, tenofovir alafenamide fumarate]
number of freeze-thaw cycles for which stable [2]: two
time up to which stable in whole blood [1]: up to 1 h
injection matrix stability [3]: unstable
plasma TAF/TFV ratio ([4]; colonic administration of TAF, mice): < 1
time for conversion of TAF into TFV ([4]; mice dosed rectally with TAF): less than 15 minutes
plasma samples with detectable systemic TAF ([4]; mice, rectal TAF): 60%
stability in mouse plasma as compared to human matrices [5]: less stable

CC(C)OC(=O)OCOP(=O)(CO[C@H](C)Cn1cnc2c(N)ncnc21)OCOC(=O)OC(C)C [TDF, tenofovir disoproxil fumarate]
increase in TFV bioavailability by prodrug administration [6]: 25%

C[C@H](Cn1cnc2c(N)ncnc21)OCP(=O)(O)O [TFV, tenofovir]
freeze-thaw stability %DIF ([2]; human): -15.2-3.04%
number of freeze-thaw cycles for which stable [2]: three
long term storage stability %DIF [7]: ≤ ±10.5%
Cmax [8]: 9.5 ng/mL
sample matrix stability %DIF [9]: -14.5-8.45%
injection matrix stability %DIF [10]: −8.44-5.57%
